Laboratory results: the supplement of paper PMC6045584
± gives the standard deviation of the averaged measurements.

Legend:
[1] = compound: CN(Cc1cnc2nc(N)nc(N)c2n1)c1ccc(C(=O)N[C@@H](CCC(=O)O)C(=O)O)cc1 [METHOTREXATE]; assay: surviving fraction relative to DMSO-only wells; higher = less growth inhibition; settings: exposure time: 5 days
Summary of the method: (§1)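 Tumour cell lines were seeded in log phase at 250–500 cells per well into 384-well plates. Starting 24 hours later, inhibitors were present continuously for five days at 0.5, 1, 5, 10, 50, 100, 500 and 1000 nM. Surviving fraction, from CellTiter-Glo luminescence, is normalised to the median of DMSO-only wells. Three screens per line were required, with replicate Pearson r >0.7 and median Z' >0.3 for a line to be kept.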

[2] = compound: NC1(c2ccc(-c3nc4ccn5c(=O)[nH]nc5c4cc3-c3ccccc3)cc2)CCC1 [MK2206]; assay: as above; settings: exposure time: 5 days
Summary of the method: as §1

Test System	surviving fraction ([1]; 0.5 nM)	surviving fraction ([1]; 1 nM)	surviving fraction ([1]; 5 nM)	surviving fraction ([1]; 10 nM)	surviving fraction ([1]; 50 nM)	surviving fraction ([1]; 100 nM)	surviving fraction ([1]; 500 nM)	surviving fraction ([1]; 1000 nM)	surviving fraction ([2]; 0.5 nM)	surviving fraction ([2]; 1 nM)	surviving fraction ([2]; 5 nM)	surviving fraction ([2]; 10 nM)	surviving fraction ([2]; 50 nM)	surviving fraction ([2]; 100 nM)	surviving fraction ([2]; 500 nM)	surviving fraction ([2]; 1000 nM)
HT1080 SOFT TISSUE	1.04 ± 0.021	1.06 ± 0.029	1.02 ± 0.04	0.493 ± 0.043	0.253 ± 0.023	0.257 ± 0.0082	0.259 ± 0.0081	0.265 ± 0.03	1.04 ± 0.028	1.02 ± 0.018	1.04 ± 0.018	1.06 ± 0.043	1.05 ± 0.026	1.05 ± 0.012	0.997 ± 0.049	0.951 ± 0.044
SUM44 BREAST	1.31 ± 0.48	1.29 ± 0.48	1.23 ± 0.36	1.23 ± 0.39	1.33 ± 0.5	1.17 ± 0.38	0.819 ± 0.25	0.802 ± 0.29	1.09 ± 0.17	1.19 ± 0.28	1.14 ± 0.24	1.22 ± 0.31	0.993 ± 0.051	1.13 ± 0.21	1.02 ± 0.18	1.09 ± 0.34
OSHN BONE	1.12 ± 0.015	1.077 ± 0.0067	0.197 ± 0.0074	0.201 ± 0.0096	0.282 ± 0.031	0.265 ± 0.0081	0.251 ± 0.023	0.255 ± 0.031	1.08 ± 0.018	1.12 ± 0.034	1.08 ± 0.021	1.12 ± 0.052	1.05 ± 0.046	1.09 ± 0.038	1.04 ± 0.051	1.09 ± 0.086
PCI30 HEADNECK	0.988 ± 0.075	1.02 ± 0.062	1.11 ± 0.037	1.09 ± 0.075	1.05 ± 0.055	0.96 ± 0.029	0.811 ± 0.016	0.758 ± 0.071	0.999 ± 0.021	1.03 ± 0.13	1.01 ± 0.027	1.07 ± 0.035	0.939 ± 0.039	0.874 ± 0.045	0.592 ± 0.033	0.483 ± 0.017
MFM223 BREAST	1.18 ± 0.11	1.3 ± 0.3	1.35 ± 0.41	1.41 ± 0.43	1.09 ± 0.096	0.98 ± 0.046	1.04 ± 0.035	1.01 ± 0.018	1.14 ± 0.047	1.12 ± 0.014	1.06 ± 0.038	1.14 ± 0.16	0.793 ± 0.077	0.661 ± 0.087	0.314 ± 0.053	0.224 ± 0.011
NOS1 BONE	1.07 ± 0.13	1.05 ± 0.12	1.16 ± 0.08	1.15 ± 0.041	1.26 ± 0.25	1.4 ± 0.33	1.19 ± 0.13	1.12 ± 0.06	0.882 ± 0.11	0.883 ± 0.088	1.01 ± 0.1	1.04 ± 0.11	0.807 ± 0.14	0.734 ± 0.011	0.503 ± 0.038	0.454 ± 0.053
HCC1806 BREAST	1.13 ± 0.11	1.11 ± 0.098	0.503 ± 0.063	0.445 ± 0.03	0.263 ± 0.01	0.227 ± 0.017	0.244 ± 0.0074	0.254 ± 0.016	1.02 ± 0.074	1.1 ± 0.021	1.15 ± 0.19	1.14 ± 0.05	1.05 ± 0.072	1.02 ± 0.099	0.828 ± 0.013	0.682 ± 0.015
SG31 HEADNECK	1.14 ± 0.19	1.21 ± 0.037	1.07 ± 0.1	1.31 ± 0.22	1.16 ± 0.2	1.18 ± 0.19	1.26 ± 0.2	1.21 ± 0.024	1.24 ± 0.29	0.996 ± 0.022	1.1 ± 0.28	1.19 ± 0.2	0.945 ± 0.16	0.916 ± 0.2	0.901 ± 0.13	0.88 ± 0.12
HMLE3 BREAST	0.98 ± 0.057	1.03 ± 0.13	1.07 ± 0.046	0.985 ± 0.037	0.575 ± 0.051	0.639 ± 0.062	0.522 ± 0.026	0.513 ± 0.037	1.06 ± 0.11	1.13 ± 0.047	1.08 ± 0.01	1.09 ± 0.044	0.895 ± 0.14	0.843 ± 0.098	0.717 ± 0.052	0.617 ± 0.018
MDAMB361 BREAST	0.85 ± 0.13	0.853 ± 0.073	0.8 ± 0.015	0.889 ± 0.062	0.947 ± 0.082	0.879 ± 0.037	0.74 ± 0.045	0.735 ± 0.075	0.985 ± 0.072	0.922 ± 0.076	0.826 ± 0.1	0.841 ± 0.031	0.768 ± 0.11	0.608 ± 0.019	0.353 ± 0.024	0.34 ± 0.026
A549 LUNG	1.06 ± 0.07	1.06 ± 0.043	1.04 ± 0.023	1.06 ± 0.036	0.237 ± 0.0061	0.219 ± 0.0071	0.213 ± 0.0055	0.218 ± 0.0055	1.05 ± 0.023	1.1 ± 0.028	1.06 ± 0.037	1.081 ± 0.0074	1.06 ± 0.017	1.08 ± 0.026	1.06 ± 0.024	1.09 ± 0.042
VP229 BREAST	1.13 ± 0.076	1.12 ± 0.15	1.14 ± 0.05	1.15 ± 0.13	1.25 ± 0.15	1.08 ± 0.12	1.12 ± 0.12	1.14 ± 0.053	1.1 ± 0.13	1.19 ± 0.16	1.19 ± 0.14	1.18 ± 0.15	1.07 ± 0.14	0.909 ± 0.18	0.713 ± 0.055	0.658 ± 0.12
MDAMB436 BREAST	0.955 ± 0.13	0.977 ± 0.091	0.963 ± 0.12	0.857 ± 0.024	0.677 ± 0.096	0.609 ± 0.057	0.65 ± 0.14	0.687 ± 0.083	1.02 ± 0.14	0.932 ± 0.087	0.954 ± 0.023	0.957 ± 0.068	0.928 ± 0.023	0.924 ± 0.11	0.828 ± 0.14	0.734 ± 0.088
SG43 HEADNECK	0.924 ± 0.046	1.01 ± 0.21	0.917 ± 0.18	0.915 ± 0.16	0.881 ± 0.092	0.678 ± 0.091	0.909 ± 0.15	0.84 ± 0.055	1.19 ± 0.62	0.92 ± 0.097	0.894 ± 0.2	0.741 ± 0.14	0.653 ± 0.19	0.505 ± 0.073	0.465 ± 0.17	0.317 ± 0.089
RDES SOFT TISSUE	1.2 ± 0.1	1.26 ± 0.021	0.831 ± 0.19	0.295 ± 0.015	0.055 ± 0.0036	0.0457 ± 0.0015	0.0463 ± 0.0046	0.0447 ± 0.0015	1.14 ± 0.04	1.27 ± 0.13	1.22 ± 0.074	1.13 ± 0.032	1.06 ± 0.062	1.17 ± 0.1	1.2 ± 0.066	1.104 ± 0.0067
SKBR3 BREAST	1.02 ± 0.024	1.11 ± 0.027	1.11 ± 0.1	1.04 ± 0.12	0.784 ± 0.13	0.629 ± 0.038	0.503 ± 0.1	0.512 ± 0.13	0.983 ± 0.076	1.01 ± 0.16	0.942 ± 0.085	0.911 ± 0.032	0.724 ± 0.067	0.581 ± 0.028	0.368 ± 0.02	0.337 ± 0.015
OS25HAL BONE	0.998 ± 0.041	1.01 ± 0.035	1.05 ± 0.029	0.786 ± 0.031	0.357 ± 0.022	0.217 ± 0.017	0.166 ± 0.0076	0.164 ± 0.0066	0.998 ± 0.042	1.07 ± 0.028	1.07 ± 0.024	1.02 ± 0.026	0.813 ± 0.066	0.631 ± 0.085	0.301 ± 0.035	0.278 ± 0.021
S68 BREAST	0.882 ± 0.3	0.879 ± 0.25	1.1 ± 0.15	1.21 ± 0.29	1.07 ± 0.13	1.21 ± 0.16	1.04 ± 0.18	1.17 ± 0.12	1.15 ± 0.26	0.874 ± 0.16	1.15 ± 0.22	1.14 ± 0.17	0.974 ± 0.22	0.619 ± 0.088	0.229 ± 0.028	0.156 ± 0.044
CME SYNOVIAL	1.2 ± 0.098	1.12 ± 0.069	0.755 ± 0.15	0.558 ± 0.062	0.612 ± 0.019	0.612 ± 0.034	0.561 ± 0.048	0.648 ± 0.046	1.25 ± 0.18	1.22 ± 0.043	1.35 ± 0.13	1.35 ± 0.099	1.18 ± 0.085	1.23 ± 0.18	1.13 ± 0.099	0.901 ± 0.093
CHLA90 AUTONOMIC GANGLIA	1.037 ± 0.006	1.01 ± 0.084	1 ± 0.035	0.995 ± 0.037	1.08 ± 0.11	1.13 ± 0.12	1.16 ± 0.11	1.19 ± 0.033	1.04 ± 0.058	1.01 ± 0.037	0.944 ± 0.013	0.929 ± 0.025	0.945 ± 0.024	0.997 ± 0.1	0.9213 ± 0.0085	0.947 ± 0.053
ASKA SYNOVIAL	1.13 ± 0.14	1.07 ± 0.067	1.13 ± 0.048	1.08 ± 0.083	1.23 ± 0.094	1.18 ± 0.087	1.19 ± 0.086	1.12 ± 0.09	0.991 ± 0.089	1.06 ± 0.014	1 ± 0.04	1.02 ± 0.16	0.771 ± 0.038	0.724 ± 0.064	0.482 ± 0.018	0.481 ± 0.022
